PMC8272044, “5-Phenoxy Primaquine Analogs and the Tetraoxane Hybrid as Antimalarial Agents” (Molecules, 2021)
Read-outs that look alike come from different tables or passages of the source.

Columns and labels:
hematin polymerization [1] = assay: Inhibition of hematin polymerization (heme polymerization assay); format: biochemical;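 for %Inh1: test concentrations in µM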;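 for %Inh2: test concentrations in µM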;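 for %Inh3: test concentrations in µM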
Protocol: The ability of the 5-phenoxy primaquine analogs to inhibit hematin polymerization was investigated using a protocol modified from the one described previously. […] After it was left standing for 15 min, Tween 20 (0.5 μM; Sigma) was added. […] The assay was performed in triplicate, and results were expressed as the percentage of inhibition relative to hemozoin formation in a negative control. The IC50 values were obtained from the sigmoidal dose–response curves using nonlinear regression curve fitting analyses with GraphPad Prism version 3.00 software. Each IC50 value is the result of at least three separate experiments.

[2] = Cytotoxicity by sulforhodamine B (SRB) colorimetric assay; format: cell-based, African green monkey; settings: African green monkey, Vero cells (kidney fibroblasts); Vero cells, 72 h, SRB, mean ± SD of three repeats
Excerpt: (§1) A cytotoxicity test of selected analogs against African green monkey kidney fibroblast (Vero cells) was obtained from Bioassay Laboratory, BIOTEC, NSTDA, Thailand. They were maintained continuously in MEM/EBSS medium (Hyclone Laboratories Inc., South Logan, UT, USA), supplemented with 10% heated fetal bovine serum (GE Healthcare, PAA Laboratories GmbH, Pasching, Austria), 2.2 g/L Sodium bicarbonate (Emsure, Merck kGaA, Darmstadt, Germany), and 1% sodium pyruvate (Sigma). […] Then, the cells were fixed with 100 µL of 10% trichloroacetic acid (Sigma) at 4 °C for 45 min, washed, and dried at room temperature overnight. […] Finally, 200 µL of 10× Tris-base was added to each well to dissolve protein-bound dye. The OD was determined at a wavelength of 510 nm. The control media was used for overall background subtraction as 0% and untreated cells as 100% control without any cytotoxic effect. The IC50 value of each compound was determined from the dose–response curve.

[3] = test system: African green monkey kidney fibroblast (Vero cells); assay: as above; format: cell-based; settings: Vero CC50 / P. falciparum 3D7 IC50
Excerpt: as §1

P. falciparum 3D7 = assay: In vitro blood antimalarial activity, malaria SYBR green I-based fluorescence (MSF) method; format: cell-based; settings: Plasmodium falciparum; P. falciparum 3D7, blood stage, 48 h, mean ± SD of three biological repeats
Protocol: P. falciparum strain 3D7 (wild-type drug sensitive strain) was used in this study. This parasite was maintained continuously in vitro in human O+ erythrocytes (4% hematocrit) at 37 °C under 3% CO2 and 90% N2 in RPMI 1640 culture media (Life Technologies Limited, Paisley, UK) containing 2 mM L-Glutamine, 25 mM HEPES (Sigma), pH 7.4, 2g/L NaHCO3, 40 mg/L gentamicin, 0.37 mM hypoxanthine, and supplemented with 5 g/L Albumax I (Life Technologies, Grand Island, NY, USA). Every 3 to 4 days, the parasite culture was synchronized with 5% sorbitol and transferred into complete medium with uninfected erythrocytes. In vitro antimalarial activity was determined by using the malaria SYBR green I-based fluorescence (MSF) method. Briefly, 0.09 mL of cultured 1% ring-stage synchronized parasites and 2% hematocrit were transferred to individual wells of a standard 96-well microtiter plate and in vitro culture continued for 48 h, with 0.01 mL of compound at different concentration in each well. The compounds were first dissolved in DMSO and diluted with RPMI medium to 1% DMSO. The final concentration of DMSO in each well was 0.1%, which caused no effect on the parasite viability. Following 48 h, SYBR Green I solution (0.02 µL of 10,000X SYBR Green I/100 µL of buffer solution consisted of 20 mM Tris 20, pH 7.5, 5 mM EDTA, 0.008% w/v saponin and 0.08% v/v Triton X-100) was then added to each well, and fluorescence signals were measured by spectrofluorometer at ex485/em 535 nm. […] The result of each compound was normalized with control media for the overall background subtraction as 0% and untreated parasite with 0.1% DMSO as 100% control.

hematin polymerization [4] = test system: hematin polymerization; parameters: method as in PMID 10049273; settings: literature value; read-out: IC50, hematin polymerization inhibition; cited from earlier work
[5] = pH 5.0, mean ± SD of three independent repeats, read-out: IC50, inhibition of hemozoin-initiated hematin polymerization
[6] = primary data, repeat 1, read-out: IC50, heme polymerization inhibition, repeat 1
[7] = primary data, repeat 2, read-out: IC50, heme polymerization inhibition, repeat 2
[8] = primary data, repeat 3, read-out: IC50, heme polymerization inhibition, repeat 3

| Compound | %Inh1 (hematin polymerization [1]; conc 2, repeat 1) | %Inh2 (hematin polymerization [1]; conc 2, repeat 2) | %Inh3 (hematin polymerization [1]; conc 2, repeat 3) | %Inh1 (hematin polymerization [1]; conc 10, repeat 1) | %Inh2 (hematin polymerization [1]; conc 10, repeat 2) | %Inh3 (hematin polymerization [1]; conc 10, repeat 3) | %Inh1 (hematin polymerization [1]; conc 50, repeat 1) | %Inh2 (hematin polymerization [1]; conc 50, repeat 2) | %Inh3 (hematin polymerization [1]; conc 50, repeat 3) | %Inh1 (hematin polymerization [1]; conc 100, repeat 1) | %Inh2 (hematin polymerization [1]; conc 100, repeat 2) | %Inh3 (hematin polymerization [1]; conc 100, repeat 3) | %Inh1 (hematin polymerization [1]; conc 200, repeat 1) | %Inh2 (hematin polymerization [1]; conc 200, repeat 2) | %Inh3 (hematin polymerization [1]; conc 200, repeat 3) | %Inh1 (hematin polymerization [1]; conc 400, repeat 1) | %Inh2 (hematin polymerization [1]; conc 400, repeat 2) | %Inh3 (hematin polymerization [1]; conc 400, repeat 3) | IC50 (hematin polymerization [1]; [5]) | IC50 (hematin polymerization [1]; [6]) | further results |
| --- | --- | --- | --- | --- | --- | --- | --- | --- | --- | --- | --- | --- | --- | --- | --- | --- | --- | --- | --- | --- | --- |
| COc1cc(NC(C)CCCN)c2ncccc2c1Oc1ccc(C#N)cc1 (stereo not shown) [7e, 4-((8-((5-Aminopentan-2-yl)amino)-6-methoxyquinolin-5-yl)oxy)benzonitrile] | 8.32% | 3.87% | 7.94% | 3.78% | 12.84% | 9.43% | 19.32% | 16.35% | 21.70% | 30.12% | 30.64% | 17.31% | 52.26% | 55.89% | 45.17% | 78.42% | 85.27% | 69.64% | 286 ± 11.9 µM | 291 µM | IC50 (hematin polymerization [1]; [7]): 269 µM; IC50 (hematin polymerization [1]; [8]): 297 µM; CC50 at 72 h [2]: > 100 µM; SI, selectivity index = CC50 on Vero cells / IC50 in the blood stage [3]: >21.65; IC50 (P. falciparum 3D7): 4.62 ± 0.56 µM |
| COc1cc(NC(C)CCCN)c2ncccc2c1 (stereo not shown) [PQ, primaquine bisphosphate, reference compound] | -2.08% | 16.17% | 4.69% | -9.33% | 8.67% | 3.70% | 12.67% | -7.00% | 5.24% | 19.42% | 22.96% | 19.59% | 46.18% | 36.04% | 39.63% | 73.12% | 80.96% | 77.01% | 320 ± 12 µM | 313 µM | IC50 (hematin polymerization [1]; [7]): 310 µM; IC50 (hematin polymerization [1]; [8]): 337 µM; IC50 (hematin polymerization [4]): > 2.5 mM; IC50 (P. falciparum 3D7): 11.3 ± 0.79 µM |
| COc1cc(NC(C)CCCN)c2ncccc2c1Oc1ccc(Br)cc1 (stereo not shown) [7c, N^4-(5-(4-Bromophenoxy)-6-methoxyquinolin-8-yl) pentane-1,4-diamine] | 7.63% | 6.63% | 1.36% | 8.52% | 5.82% | 7.32% | 12.67% | 18.23% | 10.74% | 31.46% | 32.12% | 38.23% | 63.35% | 63.64% | 61.57% | 90.44% | 88.93% | 90.95% | 175 ± 4.3 µM | 170 µM | IC50 (hematin polymerization [1]; [7]): 181 µM; IC50 (hematin polymerization [1]; [8]): 175 µM; CC50 at 72 h [2]: 42.2 ± 3.25 µM; SI, selectivity index = CC50 on Vero cells / IC50 in the blood stage [3]: 6.00; IC50 (P. falciparum 3D7): 7.03 ± 1.31 µM |
| COc1ccc(Oc2c(OC)cc(NC(C)CCCN)c3ncccc23)cc1 (stereo not shown) [7b, N^4-(6-Methoxy-5-(4-methoxyphenoxy)quinolin-8-yl)pentane-1,4-diamine] | 2.65% | 5.23% | 1.85% | 5.02% | 7.53% | 11.84% | 15.24% | 19.36% | 16.35% | 40.12% | 39.30% | 42.63% | 67.25% | 67.23% | 71.49% | 94.57% | 90.75% | 98.34% | 160 ± 2.2 µM | 162 µM | IC50 (hematin polymerization [1]; [7]): 160 µM; IC50 (hematin polymerization [1]; [8]): 157 µM; CC50 at 72 h [2]: 55.6 ± 4.34 µM; SI, selectivity index = CC50 on Vero cells / IC50 in the blood stage [3]: 7.05; IC50 (P. falciparum 3D7): 7.89 ± 0.5 µM |
| COc1cc(NC(C)CCCN)c2ncccc2c1Oc1ccc(C(N)=O)cc1 (stereo not shown) [7h, 4-((8-((5-Aminopentan-2-yl)amino)-6-methoxyquinolin-5-yl)oxy)benzamide] | 6.92% | 2.87% | 14.16% | 8.33% | 17.48% | 18.60% | 22.32% | 30.21% | 30.28% | 39.91% | 44.86% | 40.80% | 66.71% | 77.84% | 84.25% | 87.23% | 92.60% | 103.26% | 154 ± 6.4 µM | 154 µM | IC50 (hematin polymerization [1]; [7]): 162 µM; IC50 (hematin polymerization [1]; [8]): 146 µM; CC50 at 72 h [2]: > 100 µM; SI, selectivity index = CC50 on Vero cells / IC50 in the blood stage [3]: >7.41; IC50 (P. falciparum 3D7): 13.5 ± 1.57 µM |
